Reference: patent publication US20230346777A1, “USE OF SGC ACTIVATORS FOR THE TREATMENT OF OPHTHALMOLOGIC DISEASES” (Bayer Aktiengesellschaft, priority 2020, published 2023)
Entries after “also recorded” stand apart in the source; their conditions may differ. Counter-ions that a name gives are not always drawn.

Legend:
[1] = molecular target: T1, recombinant guanylate cyclase reporter cell line (Rattus norvegicus, UniProt P20595); assay: Effect on a recombinant guanylate cyclase reporter cell line; assay type: cell-based
T1 construct: expressed in transfected cells; CHO by own knowledge of the cited Wunder et al. 2005
T1 sequence (P20595 1-619): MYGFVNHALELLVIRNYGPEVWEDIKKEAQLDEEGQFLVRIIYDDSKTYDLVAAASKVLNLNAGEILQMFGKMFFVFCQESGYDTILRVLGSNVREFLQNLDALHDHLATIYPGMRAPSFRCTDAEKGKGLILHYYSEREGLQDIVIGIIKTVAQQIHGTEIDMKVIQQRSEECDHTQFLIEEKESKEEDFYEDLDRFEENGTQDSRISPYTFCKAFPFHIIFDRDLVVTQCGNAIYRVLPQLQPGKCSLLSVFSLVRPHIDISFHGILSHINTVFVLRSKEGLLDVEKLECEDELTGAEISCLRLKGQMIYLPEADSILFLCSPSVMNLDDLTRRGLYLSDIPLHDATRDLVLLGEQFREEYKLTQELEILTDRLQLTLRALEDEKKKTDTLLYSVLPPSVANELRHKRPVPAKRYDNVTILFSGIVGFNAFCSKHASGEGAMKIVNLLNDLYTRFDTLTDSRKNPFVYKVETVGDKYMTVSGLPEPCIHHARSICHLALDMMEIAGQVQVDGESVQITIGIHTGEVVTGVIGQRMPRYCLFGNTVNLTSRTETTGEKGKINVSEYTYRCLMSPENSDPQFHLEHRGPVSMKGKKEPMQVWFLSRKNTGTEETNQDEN
T1 sequence (P19686 1-690 partner): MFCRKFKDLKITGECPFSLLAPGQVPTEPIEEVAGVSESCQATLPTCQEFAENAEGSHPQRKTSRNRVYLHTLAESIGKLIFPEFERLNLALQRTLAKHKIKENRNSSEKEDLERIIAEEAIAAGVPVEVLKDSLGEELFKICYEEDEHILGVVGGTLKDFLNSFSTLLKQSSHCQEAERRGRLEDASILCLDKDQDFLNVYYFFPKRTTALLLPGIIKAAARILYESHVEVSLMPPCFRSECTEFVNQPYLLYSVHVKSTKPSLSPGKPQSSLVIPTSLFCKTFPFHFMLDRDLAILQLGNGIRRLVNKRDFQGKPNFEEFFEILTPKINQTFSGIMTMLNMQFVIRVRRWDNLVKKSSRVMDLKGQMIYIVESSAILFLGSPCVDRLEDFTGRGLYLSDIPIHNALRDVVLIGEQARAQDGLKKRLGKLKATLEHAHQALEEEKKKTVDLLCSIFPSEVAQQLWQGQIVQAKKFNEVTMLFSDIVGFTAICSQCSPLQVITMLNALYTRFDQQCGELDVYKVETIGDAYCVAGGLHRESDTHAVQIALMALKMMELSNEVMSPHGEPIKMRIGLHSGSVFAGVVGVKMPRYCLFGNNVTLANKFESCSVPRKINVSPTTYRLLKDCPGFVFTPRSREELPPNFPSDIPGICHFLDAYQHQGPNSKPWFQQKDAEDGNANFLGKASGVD
Protocol: B-1. Effect on a Recombinant Guanylate Cyclase Reporter Cell Line
The cellular activity of the compounds according to the invention was determined using a recombinant guanylate cyclase reporter cell line, as described in F. Wunder et al., Anal. Biochem. 339, 104-112 (2005).

[2] = tested on: retinal ischemia reperfusion (I/R) in rat; assay: Acute changes in rat retinal structure after retinal ischemia reperfusion (I/R), prophylactic settings; assay type: in vivo, male Wistar Unilever rats; settings: I/R rats
Description: B-7 Evaluation of Acute Changes in Rat Retinal Structure after Retinal Ischemia Reperfusion (I/R) Prophylactic Settings
Six male Wistar Unilever rats were used per experimental group. On induction day, rats were anesthetized with an intraperitoneal injection of Rompun® and Ketavet® before the pupils of the right eyes (oculus dextrus, OD) were dilated with Alcain eye drops and in addition treated with Vigamox® eye drops. The left eye (oculus sinister, OS) is covered with Bepanthen® eye cream. Under deep anesthesia, the retina and the optic nerve were examined by optical coherence tomography (OCT) as a baseline measurement. 15 minutes before induction, group 2 received an intravenous (IV) bolus of compound (e.g. example 3, formula I-E-R) (i.v. 3 mg/kg in rat plasma). Then, the anterior chamber was punctured with a 30 G needle. Through a tube, 0.9% NaCl solution was pumped into the anterior chamber with a pressure 120 mm Hg. The pressure is regulated with a blood pressure cuff. The intraocular pressure (IOP) was elevated for 45 min. The procedure was successful as the eyeballs discolored because of vascular obstruction. After 45 min, the needle was removed, eye cream was put on the right eye and the animal could wake up. […]
Functional read-out of retinal electrical signal in response to light stimulation “b-wave amplitude (μv)” represents inner retinal function. […]

Q: How did the EC50 [1] turn out when `CC(C)CN1CCN(c2ccc(-c3ccc(Cl)cc3N3CCC[C@@H](n4ncc(C(=O)O)c4C(F)F)C3)cc2)CC1` [Example 3, 1-{1-[4-Chloro-4′-(4-isobutylpiperazin-1-yl)[biphenyl]-2-yl]piperidin-3-yl}-5-(difluoromethyl)-1H-pyrazole-4-carboxylic acid hydrochloride] was run?
A: 2.7 nM

Q: And the “MEC (minimum effective concentration)” value ([1]; hydrochloride)?
A: 0.6 nM

Q: What about the “retinal structure (OCT and histological examination)” value ([2]; day 7 post ischemic induction) of the same molecule?
A: preserved retinal structure in both OCT and histological examination

Q: What about the “b wave amplitude (ERG, retinal function)” value ([2]; oral QD from 2 days before to 6 days after induction plus i.v. 3 mg/kg bolus 15 min before induction, day 7 post induction, hydrochloride, 3 mg/kg) of the same molecule?
A: significant higher b wave amplitude compared to vehicle treated animals; also recorded: reduces ischemia induced retinal dysfunction
